Values after ≈ are worked out from the molar mass of the structure shown.
Experiment: Saturation solubility of edaravone in water
Format: physicochemical

solubility: 2000 µg/mL (≈ 11.5 mM)
SMILES: CC1=NN(c2ccccc2)C(=O)C1 [edaravone, 3-Methyl-1-phenyl-2-pyrazolin-5-one]
